Patent US12472174B2, “Bupropion dosage forms with reduced food and alcohol dosing effects” (ANTECIP BIOVENTURES II LLC, priority 2022, dated 2025)
Counter-ions that a name gives are not always drawn.

Key:
[1] = powder; cited from earlier work
[2] = tested on: patients with agitation associated with Alzheimer's disease; assay: Phase 2/3 randomized, double-blind, controlled clinical trial in agitation associated with Alzheimer's disease; format: in vivo, human
Protocol: A Phase 2/3 randomized, double-blind, controlled, multicenter, U.S. clinical trial was conducted to evaluate the efficacy and safety of DM/BU in patients with agitation associated with Alzheimer's disease. A total of 366 patients with a diagnosis of probable Alzheimer's disease and clinically meaningful agitation associated with their disease were randomized, initially in a 1:1:1 ratio, to receive DM/BU (dextromethorphan/bupropion, dose escalated from 30 mg/105 mg once daily in the first week, to 30 mg/105 mg twice daily in the second week, to 45 mg/105 mg twice daily thereafter), bupropion (dose escalated from 105 mg once daily in the first week to 105 mg twice daily thereafter), or matching placebo, for 5 weeks. An independent data monitoring committee performed an interim futility analysis and recommended no further randomization to the bupropion arm. Subsequently, patients were randomized in a 1:1 ratio to receive DM/BU or placebo. Total patients randomized were 159, 49, and 158 to the DM/BU, bupropion, and placebo arms, respectively. The mean Cohen-Mansfield Agitation Inventory (CMAI) total scores at baseline were 60.8, 66.1, and 59.3, respectively for the DM/BU, bupropion, and placebo groups. The minimum score on the CMAI is 29, corresponding to the total absence of symptoms, with higher scores corresponding to greater agitation. The primary endpoint of the study was the change from baseline in the CMAI total score at Week 5. P-values were calculated based on least square mean estimates.
Inclusion criteria included male or female […], diagnosis of probable Alzheimer's disease, according to the 2011 NIA-AA criteria, diagnosis of agitation, according to the IPA provisional definition of agitation, MMSE score between 10 and 24, an NPI-AA score ≥4, and community dwelling. Exclusion criterial included dementia of non-Alzheimer's type and current use of a selective serotonin reuptake inhibitor and/or a serotonin and norepinephrine inhibitor (SSRI/SNRI).

Compound	solubility in water [1]	mean reduction from baseline in CMAI total score ([2]; Week 5, primary endpoint, placebo 11.5, p=0.010)	Diarrhea ([2]; both, human, in vivo, 5 weeks)	Discontinuation due to AEs ([2]; both, human, in vivo, 5 weeks)	Dizziness ([2]; both, human, in vivo, 5 weeks)	Falls ([2]; both, human, in vivo, 5 weeks)	Fatigue ([2]; both, human, in vivo, 5 weeks)	Headache ([2]; both, human, in vivo, 5 weeks)	Insomnia ([2]; both, human, in vivo, 5 weeks)	Serious AEs ([2]; both, human, in vivo, 5 weeks)	Somnolence ([2]; both, human, in vivo, 5 weeks)	Subjects with any TEAE ([2]; both, human, in vivo, 5 weeks)	diarrhea, adverse event rate ([2]; both, human, in vivo, 5 weeks)	dizziness, adverse event rate ([2]; both, human, in vivo, 5 weeks)	rate of discontinuation due to adverse events ([2]; both, human, in vivo, 5 weeks)	serious adverse events, patients ([2]; both, human, in vivo, 5 weeks)	somnolence, adverse event rate ([2]; both, human, in vivo, 5 weeks)	deaths ([2]; one in the placebo arm)
CC(NC(C)(C)C)C(=O)c1cccc(Cl)c1.Cl (racemic) [Bupropion hydrochloride, (±)-1-(3-chlorophenyl)-2-[(1,1-dimethylethyl)amino]-1-propanone hydrochloride]	highly soluble in water	–	–	–	–	–	–	–	–	–	–	–	–	–	–	–	–	–
CC(NC(C)(C)C)C(=O)c1cccc(Cl)c1 (stereo not shown) [Bupropion, bupropion]	–	10.0 points	3 (6.1%) number of subjects (% of subjects)	1 (2.0%) number of subjects (% of subjects)	5 (10.2%) number of subjects (% of subjects)	7 (14.3%) number of subjects (% of subjects)	5 (10.2%) number of subjects (% of subjects)	3 (6.1%) number of subjects (% of subjects)	3 (6.1%) number of subjects (% of subjects)	4 (8.2%) number of subjects (% of subjects)	2 (4.1%) number of subjects (% of subjects)	30 (61.2%) number of subjects (% of subjects)	6.1%	10.2%	2.0%	8.2%	4.1%	one
COc1ccc2c(c1)[C@]13CCCC[C@@H]1[C@H](C2)N(C)CC3 [Dextromethorphan hydrobromide, morphinan, 3-methoxy-17-methyl-, (9α, 13α, 14α), hydrobromide monohydrate]	sparingly soluble in water	–	–	–	–	–	–	–	–	–	–	–	–	–	–	–	–	–
